Reference: patent US11547678B2, “Aqueous pharmaceutical formulation of tapentadol for oral administration” (GRÜNENTHAL GMBH, priority 2011, dated 2023)

Experiments:
[1] = Antimicrobial robustness testing of 4 mg/mL oral solution, higher sodium benzoate: USP and Pharm. Eur. requirements (Example 4); assay type: cell-based; details: 2.36 mg/mL sodium benzoate (corresponding to 2 mg/mL benzoic acid)
Description: Antimicrobial Robustness Testing of 4 mg/mL Tapentadol Oral Solution (Higher Concentration of Sodium Benzoate)
Based on the obtained results the test was repeated using a formulation containing a higher preservative concentration of 2.36 mg/mL instead of 1.77 mg/mL sodium benzoate.
The above study of example 3 was repeated using a formulation of 4 mg/mL tapentadol and 2.36 mg/mL sodium benzoate (corresponding to 2 mg/mL benzoic acid). The antimicrobial activity of the formulation was determined with 100% at target pH of 4 and with 80% of sodium benzoate at the pH limits of 3.5 and 4.5. The following compositions of the formulation were used for the antimicrobial robustness testing (Table 4).

yeast = assay: Initial studies: activity against yeast; assay type: cell-based; details: 10 mg/mL free base
[2] = Antimicrobial robustness testing of 4 mg/mL oral solution, lower sodium benzoate: USP and Pharm. Eur. requirements (Example 3); assay type: cell-based; details: 4 mg/mL solution
Description: Antimicrobial Robustness Testing of 4 mg/mL Tapentadol Oral Solution (Lower Concentration of Sodium Benzoate)
The 4 mg/mL solution of tapentadol has also been subjected to an antimicrobial robustness testing. […] Therefore, sodium benzoate has been used as a preservative in the formulation. The antimicrobial activity of the formulation was determined with 100% at target pH of 4 and with 80% of sodium benzoate at the pH limits of 3.5 and 4.5. The following compositions of the formulation were used for the antimicrobial robustness testing (Table 3).

[3] = Initial studies: antimicrobial activity of tapentadol hydrochloride; assay type: cell-based; details: 10 mg/mL free base
Source text: (§1) The activity against mold (Aspergillus niger) is lower but still within the limits of the requirements of the Pharm. Eur. The activity of tapentadol hydrochloride against Aspergillus niger has been evaluated at lower drug concentrations and at pH 4.0 and 5.0 in formulations containing citric acid as buffer system and hydrochloric acid and sodium hydroxide to adjust the pH.

[4] = Chemical stability of 4 and 20 mg/mL oral solution (Example 7); assay type: physicochemical; details: 3 months storage
Description: Chemical Stability of 4 and 20 mg/mL Tapentadol Oral Solution
To investigate the chemical stability of tapentadol oral solutions in different concentrations (4 and 20 mg/mL), stability studies were performed over 3 months evaluating the following parameters appearance, assay of tapentadol, degradation, assay preservative (only for the 4 mg/mL formulation) and pH at 25° C./60% RH, 40° C./75% RH and 50° C. In addition, for the 4 mg/mL solution 2 weeks cycling studies (from −15° C. to 30° C. as well as from 5° C. to 40° C.) were performed.

Aspergillus niger = assay: Activity against Aspergillus niger at lower drug concentrations, pH 4.0 and 5.0 (Example 1); assay type: cell-based
Source text: Determination of Antimicrobial Effective Concentration of Tapentadol Hydrochloride
as §1
The requirements of Pharm. Eur. for oral solutions (log reduction of 1 after 14 and no increase after 28 days concerning mold A. niger) are met at pH 4 for tapentadol concentrations of equal or above 8 mg/mL and at pH 5 for concentrations equal or above to 4 mg/m L.

mold (Aspergillus niger) = assay: Initial studies: activity against mold; assay type: cell-based; details: 10 mg/mL free base
Source text: as §1

Row | Compound | antimicrobial efficacy for a 4 mg/mL tapentadol hydrochloride oral solution [1] | activity against yeast (yeast) | antimicrobial effect of the drug substance [2] | antimicrobial activity [3] | stability of the API in solution [4] | antimicrobial activity at pH 5 compared with pH 4 (Aspergillus niger; after 14 and 28 days) | concentration limit for antimicrobial effectiveness of tapentadol (Aspergillus niger; depending on the pH (4 to 5)) | tapentadol concentration at which requirements of Pharm. Eur. for oral solutions concerning mold A. niger are met (Aspergillus niger; pH 5, log reduction of 1 after 14 and no increase after 28 days) | activity against mold (Aspergillus niger) (mold (Aspergillus niger))
1 | O=C([O-])c1ccccc1.[Na+] [sodium benzoate] | sufficient | – | – | – | – | – | – | – | –
2 | CC[C@@H](c1cccc(O)c1)[C@@H](C)CN(C)C.Cl [tapentadol hydrochloride, (1R,2R)-3-(3-dimethylamino-1-ethyl-2-methyl-propyl)-phenol hydrochloride] | – | high | not sufficiently pronounced | high | good stability | better antimicrobial activity | 4 to 8 mg/mL | ≥ 4 mg/mL | lower but still within the limits of the requirements of the Pharm. Eur.
